This is an account of results in patent US10231980B2, “Cortexolone 17alpha-benzoate for use in the treatment of tumours” (COSMO TECHNOLOGIES LTD., priority 2014, dated 2019).

Read-outs that look alike come from different tables or passages of the source.

The test system of one data set is BxPC3. Briefly: In vitro proliferation, larger panel (Example 14). The following applies: for Therapeutic Index = IC50 stimulated PBMC/IC50 cancer cell: Table VII. The text has this: Data shown in Table I were fitted through sigmoidal dose response curves and analyzed using Prizm statistical.
The next data set concerns PC3 (AR−). Briefly: ATP-dependent proliferation assay with 10 nM DHT, prostate cancer cells (Examples 1, 2). In kind it is cell-based, human. As to the method:
(§1) The experiment was performed to test and to define the antitumor activity in vitro of cortexolone 17α-benzoate on LNCaP (AR^+) and PC3 (AR^−), representative of Prostatic cancer cell lines with Androgen receptor positive or negative expression, respectively. The experimental method consisted of: • 1. […] After 24 hrs, 10 nM DHT (dihydrotestosterone) with or without anti-androgen compounds, or DMSO vehicle (negative control) was added to the cultures. • 3.
(§2) Data from Experiment 1 was fitted through sigmoidal dose response curves and analyzed using Prizm statistical analysis software. […] The results from 2 sets of experiments follow.
(§3) The experiment was performed to test and to define antitumor activity in vitro of cortexolone 17α-valerate-21-propionate on LNCaP (AR^+) and PC3 (AR^−), representative of Prostatic cancer cell lines with Androgen receptor positive or negative expression, respectively. The experimental method consisted of: • 1. […] After 24 hours, 10 nM DHT (dihydrotestosterone) with or without anti-androgen compounds, or DMSO vehicle (negative control) was added to the cultures. • 3.

A further data set concerns LNCaP (AR+). The description is as above. In kind it is cell-based, human. As to the method: as §1, §2, §3
Data set [1] concerns MiaPaca-2 pancreatic tumor xenograft. Briefly: Human pancreatic tumor xenograft in nude mice. In kind it is in vivo. The following applies: for in vivo antitumor activity compared with Cyproterone Acetate: Examples 5 and 6. The protocol:
Cortexolone 17α-benzoate and Cyproterone Acetate were separately diluted in DMSO/2-hydroxypropyl β-cyclodextrin (vehicle).
The test was carried out comparing the anti-tumor activity of cortexolone 17α-benzoate at two different dosages (8.0 mg/kg, corresponding approximately at 230 μM, and 40 mg/kg, corresponding approximately at 1150 μM), versus the vehicle (i.e. 0.4% (v/v) tween 80 and 0.5% (w/v) carboxymethylcellulose in normal saline) and versus the comparator Cyproterone Acetate at two different dosages (7.4 mg/kg and 37 mg/kg).
1×10^6 MiaPaca-2 cells suspended in matrigel were sub-cutaneously injected into 6 week old athymic nude mice.
The treatment with the tested compounds, with the vehicle and with the comparative compound, was initiated after the tumor volume has reached 50 mm^3 after transplantation. All compounds were injected 100 μL/mouse of low dose solution (approximately 230 μM) or 100 μL/mouse of high dose solution (approximately 1150 μM) of cortexolone 17α-benzoate, vehicle and Cyproterone Acetate, respectively. Compounds and controls were administered subcutaneously daily for 28 days.
Tumors were measured every 4 days with a digital caliper.
The results are plotted in FIG. 1 as average change in tumor volume relative to the start of treatment. Tumor volume was calculated according to the formula 0.5236(r1)^2(r2) where r1<r2.
Error bars are the SEM for 7 to 10 mice per treatment group. P values were calculated according to the Student's t test.
Cortexolone 17α-valerate-21-propionate and Cyproterone Acetate were separately diluted in DMSO/2-hydroxypropyl β-cyclodextrin (vehicle).
The test was carried out comparing the anti-tumor activity of cortexolone 17α-valerate-21-propionate at two different dosages (approximately 8.6 mg/kg and 43 mg/kg) versus the vehicle (i.e. 0.4% (v/v) tween 80 and 0.5% (w/v) carboxymethylcellulose in normal saline) and versus the comparator Cyproterone Acetate at two different dosages (7.4 mg/kg and 37 mg/kg).
1×10^6 MiaPaca-2 cells suspended in matrigel were subcutaneously injected into 6 week old athymic nude mice.
The treatment with the tested compound, with the vehicle and with the comparative compound was initiated after the tumor has reached a volume of 50 mm^3 after implantation, injecting subcutaneously 100 μL/mouse of low dose solution (approximately 230 μM) or 100 μL/mouse of high dose solution (approximately 1150 μM) of cortexolone 17α-valerate-21-propionate, vehicle and Cyproterone Acetate, respectively. Compounds and controls were administered subcutaneously daily for 28 days. Tumors were measured every 4 days with a digital caliper.
The results are plotted in FIG. 2 as average change in tumor volume relative to the start of treatment. Tumor volume was calculated according to the formula 0.5236(r1)^2(r2) where r1<r2.
Cyproterone acetate (CPA), a well-known anti-androgen, was used as control. Briefly 1×10^6 MiaPaca2 cells suspended in matrigel were subcutaneously (sc) injected into 6 week old male athymic nude mice. Tumors were measured every 4 days with a digital caliper. Tumor volume was calculated according to the formula: 0.5236(r1)2(r2) where r1<r2. Treatment with CB-03-06 and control compounds were initiated after the tumor had reached 50 mm^3. Compounds diluted in DMSO/2-hydroxypropyl b-cyclodextrin (vehicle) were subcutaneously injected daily (100 microL/mouse) at the concentration of 40 mg/Kg daily for 28 consecutive days.
In general terms: A xenograft is tissue or cells of one species grown in another, often human tumour cells in immunodeficient mice.

Data set [2] relates to caspases 8, 9, 3/7 in LNCaP cells. Briefly: Caspase 8, 9 and 3/7 activity. The following applies: 24 hour incubation, Enzalutamide positive control. In kind it is cell-based. The protocol:
After 24 hours, test compounds were added to cells. Gemcitabine (a known pancreatic cancer chemotherapeutic agent) and DMSO were used as positive and negative controls, respectively. There were three incubation time points: 8 hours, 24 hours, and 48 hours. After each time point, cells were lysed in multiplex buffer containing the caspase 3/7 substrate combined with either caspase 8 or caspase 9 reagents, which contain stable luciferase in proprietary buffers. The lysates were transferred to white opaque 96-well plates before measuring luminescence on a Tecan Safire instrument. Parallel plates treated identically were used to determine cell viability. All caspase activities were corrected for the number of viable cells.
The same assay was repeated using LNCaP prostate cancer cell lines. […] The results are shown in FIG. 12 after 24 hour incubation when the caspase activities peaked.

For a further data set, the system named is MiaPaca2. The experiment in a line: Cell cycle arrest, propidium iodide staining. Format: cell-based. The following applies: 24 hours, different concentrations. As to the method: Apoptosis can occur at the G1/S or G2/M transition of the cell cycle. Cells were treated with CB-03-10 for 24 hours then fixed with paraformaldehyde and stained with propidium iodide. […] The lack of G1 block indicates no effect on p53. The S & G2/M blocks may indicate activity on cell cycle check point molecules. For S phase, a possible target is the cyclin dependent kinase 2 (CDK2). Gemzar and cisplatin are example drugs that act in S phase. For G2, a possible target is CDK1.

Take `CCCCC(=O)O[C@]1(C(=O)COC(=O)CC)CC[C@H]2[C@@H]3CCC4=CC(=O)CC[C@]4(C)[C@H]3CC[C@@]21C` [CB-03-10, cortexolone 17α-valerate-21-propionate]: in the data set on BxPC3 (BxPC3, Table IV), the “Therapeutic Index = IC50 resting PBMC/IC50 cancer cell” value stood at 3. Besides, the “Therapeutic Index = IC50 stimulated PBMC/IC50 cancer cell” value with BxPC3 (BxPC3) is given as 3. Further, the IC50 in the data set with BxPC3 (read-out: In vitro proliferation IC50, BxPC3, Table IV) came out at 30 µM; with PC3 (AR−) (PC3, Experiment 1, sigmoidal dose response fit, 10 nM DHT, 3 days, read-out: IC50) it was 55 µM; in the data set with PC3 (AR−) (PC3, Experiment 2, nonlinear regression least squares fit, additional experiments, read-out: IC50), 50 µM; with LNCaP (AR+) (LNCaP, Experiment 1, sigmoidal dose response fit, 10 nM DHT, 3 days, read-out: IC50), 13 µM; in the data set on LNCaP (AR+) (LNCaP, Experiment 2, nonlinear regression least squares fit, additional experiments, read-out: IC50), 10 µM. Also, the “pancreatic tumor size relative to the initial tumor size” value in data set [1] (Example 6, MiaPaca-2 xenograft, nude mice, SC daily 28 days, for the time of treatment) is reported as “less than 5 fold”. Further, the “in vivo antitumor activity compared with Cyproterone Acetate” value in data set [1] (MiaPaca-2 xenograft) is “antitumor activity higher than Cyproterone Acetate”.

On to `C[C@]12CCC(=O)C=C1CC[C@@H]1[C@@H]2CC[C@@]2(C)[C@H]1CC[C@]2(OC(=O)c1ccccc1)C(=O)CO` [CB-03-06, cortexolone 17α-benzoate], for which the “Therapeutic Index = IC50 resting PBMC/IC50 cancer cell” value in the data set on BxPC3 (BxPC3, Table IV) turned out to be 3. Also, in the data set with BxPC3 (BxPC3), the “Therapeutic Index = IC50 stimulated PBMC/IC50 cancer cell” value was found to be 3. Further, the IC50 in the data set on BxPC3 (Homo sapiens, BXPC-3, read-out: In vitro proliferation IC50) was 28 µM; with BxPC3 (Homo sapiens, BXPC-3, read-out: in vitro proliferation IC50), 28 µM; in the data set on PC3 (AR−) (Homo sapiens, PC3/AR), 28 µM; in the data set with PC3 (AR−) (Homo sapiens, PC3/AR, 72 h), 29 µM; with LNCaP (AR+) (Homo sapiens, LNCaP/AR) it was 12 µM; in the data set with LNCaP (AR+) (Homo sapiens, LNCaP/AR, 72 h), 12 µM. For the same compound, the “Initiator (8 and 9) and Effector (3/7) caspase activities” value in data set [2] is “induced Initiator (8 and 9,) and Effector (3/7) caspase activities better than Enzalutamide”. Besides, the cell cycle arrest entry in the data set with MiaPaca2 is “induces an S phase block at lower concentrations then a G2/M block at higher concentration”. Besides, the “pancreatic tumor size relative to the size when treatment was initiated” value in data set [1] (Example 5, MiaPaca-2 xenograft, nude mice, SC daily 28 days, high dose of cortexolone 17α-benzoate (40 mg/kg)) is given as “less than 5 fold”. The “pancreatic tumor size relative to the initial size” value in data set [1] (Example 22, MiaPaca2 xenograft, male nude mice, 40 mg/Kg SC daily 28 days, treatment period) is “less than 5 fold”. This compound showed a Median survival in data set [1] (Example 22, MiaPaca2 xenograft, 40 mg/Kg SC daily 28 days) of 70 days. Besides, the “in vivo antitumor activity compared with Cyproterone Acetate” value in data set [1] (MiaPaca-2 xenograft) was “antitumor activity higher than Cyproterone Acetate”.
